Data reported in ChEMBL document CHEMBL4507286 (2021).

Tests used:
[1] = biological target: Serine/threonine-protein kinase 25 (Homo sapiens) (UniProt O00506)
[2] = biological target: Calcium/calmodulin-dependent protein kinase type II subunit delta (Homo sapiens) (UniProt Q13557)
[3] = biological target: Serine/threonine-protein kinase TBK1 (Homo sapiens) (UniProt Q9UHD2)
[4] = biological target: Mitogen-activated protein kinase 15 (Homo sapiens) (UniProt Q8TD08)
[5] = biological target: Cyclin-dependent kinase-like 2 (Homo sapiens) (UniProt Q92772)
[6] = biological target: Mitogen-activated protein kinase kinase kinase 12 (Homo sapiens) (UniProt Q12852)
[7] = biological target: Serine/threonine-protein kinase SIK2 (Homo sapiens) (UniProt Q9H0K1)
[8] = biological target: Serine/threonine-protein kinase PAK 1 (Homo sapiens) (UniProt Q13153)
[9] = tested on: Mast/stem cell growth factor receptor Kit (Homo sapiens), P10721 [V559D,V654A]
[10] = biological target: MAP kinase-interacting serine/threonine-protein kinase 1 (Homo sapiens) (UniProt Q9BUB5)
[11] = biological target: Mitogen-activated protein kinase kinase kinase 2 (Homo sapiens) (UniProt Q9Y2U5)
[12] = biological target: Serine/threonine-protein kinase Nek11 (Homo sapiens) (UniProt Q8NG66)
[13] = biological target: Focal adhesion kinase 1 (Homo sapiens) (UniProt Q05397)
[14] = biological target: Mitogen-activated protein kinase kinase kinase 4 (Homo sapiens) (UniProt Q9Y6R4)
[15] = biological target: Death-associated protein kinase 1 (Homo sapiens) (UniProt P53355)
[16] = biological target: Serine/threonine-protein kinase WNK1 (Homo sapiens) (UniProt Q9H4A3)
[17] = biological target: Tyrosine-protein kinase receptor UFO (Homo sapiens) (UniProt P30530)
[18] = biological target: Cyclin-G-associated kinase (Homo sapiens) (UniProt O14976)
[19] = biological target: Serine/threonine-protein kinase PRP4 homolog (Homo sapiens) (UniProt Q13523)
[20] = biological target: Fibroblast growth factor receptor 1 (Homo sapiens) (UniProt P11362)
[21] = biological target: Mitogen-activated protein kinase kinase kinase 9 (Homo sapiens) (UniProt P80192)
[22] = biological target: Serine/threonine-protein kinase DCLK1 (Homo sapiens) (UniProt O15075)
[23] = biological target: Myotonin-protein kinase (Homo sapiens) (UniProt Q09013)
[24] = biological target: cGMP-dependent protein kinase 1 (Homo sapiens) (UniProt Q13976)
[25] = biological target: Mitogen-activated protein kinase kinase kinase 10 (Homo sapiens) (UniProt Q02779)
[26] = biological target: Phosphatidylinositol 4,5-bisphosphate 3-kinase catalytic subunit gamma isoform (Homo sapiens) (UniProt P48736)
[27] = biological target: Myosin-IIIb (Homo sapiens) (UniProt Q8WXR4)
[28] = biological target: Serine/threonine-protein kinase SIK3 (Homo sapiens) (UniProt Q9Y2K2)
[29] = biological target: Myosin light chain kinase, smooth muscle (Homo sapiens) (UniProt Q15746)
[30] = biological target: MAP/microtubule affinity-regulating kinase 4 (Homo sapiens) (UniProt Q96L34)
[31] = biological target: Mitogen-activated protein kinase 10 (Homo sapiens) (UniProt P53779)
[32] = biological target: Serine/threonine-protein kinase 3 (Homo sapiens) (UniProt Q13188)
[33] = tested on: Hepatocyte growth factor receptor (Homo sapiens), P08581 [M1250T]
[34] = biological target: Cyclin-dependent kinase 3 (Homo sapiens) (UniProt Q00526)
[35] = biological target: Ephrin type-B receptor 2 (Homo sapiens) (UniProt P29323)
[36] = tested on: Epidermal growth factor receptor (Homo sapiens), P00533 [L861Q]
[37] = biological target: LIM domain kinase 1 (Homo sapiens) (UniProt P53667)
[38] = tested on: Phosphatidylinositol 4,5-bisphosphate 3-kinase catalytic subunit alpha isoform (Homo sapiens), P42336 [E545K]
[39] = biological target: 5-hydroxytryptamine receptor 1A (Homo sapiens) (UniProt P08908); conditions: Compound concentration 10.0 uM
[40] = biological target: Mitogen-activated protein kinase kinase kinase 7 (Homo sapiens) (UniProt O43318)
[41] = biological target: Dual specificity mitogen-activated protein kinase kinase 5 (Homo sapiens) (UniProt Q13163)
[42] = biological target: Homeodomain-interacting protein kinase 4 (Homo sapiens) (UniProt Q8NE63)
[43] = biological target: Tyrosine-protein kinase Fer (Homo sapiens) (UniProt P16591)
[44] = biological target: Ribosomal protein S6 kinase alpha-1 (Homo sapiens) (UniProt Q15418)
[45] = biological target: 3-phosphoinositide-dependent protein kinase 1 (Homo sapiens) (UniProt O15530)
[46] = Compound concentration 1000.0 nM
[47] = Compound concentration 100.0 nM

Sequence of Tyrosine-protein kinase receptor UFO (Homo sapiens) (P30530 whole entry): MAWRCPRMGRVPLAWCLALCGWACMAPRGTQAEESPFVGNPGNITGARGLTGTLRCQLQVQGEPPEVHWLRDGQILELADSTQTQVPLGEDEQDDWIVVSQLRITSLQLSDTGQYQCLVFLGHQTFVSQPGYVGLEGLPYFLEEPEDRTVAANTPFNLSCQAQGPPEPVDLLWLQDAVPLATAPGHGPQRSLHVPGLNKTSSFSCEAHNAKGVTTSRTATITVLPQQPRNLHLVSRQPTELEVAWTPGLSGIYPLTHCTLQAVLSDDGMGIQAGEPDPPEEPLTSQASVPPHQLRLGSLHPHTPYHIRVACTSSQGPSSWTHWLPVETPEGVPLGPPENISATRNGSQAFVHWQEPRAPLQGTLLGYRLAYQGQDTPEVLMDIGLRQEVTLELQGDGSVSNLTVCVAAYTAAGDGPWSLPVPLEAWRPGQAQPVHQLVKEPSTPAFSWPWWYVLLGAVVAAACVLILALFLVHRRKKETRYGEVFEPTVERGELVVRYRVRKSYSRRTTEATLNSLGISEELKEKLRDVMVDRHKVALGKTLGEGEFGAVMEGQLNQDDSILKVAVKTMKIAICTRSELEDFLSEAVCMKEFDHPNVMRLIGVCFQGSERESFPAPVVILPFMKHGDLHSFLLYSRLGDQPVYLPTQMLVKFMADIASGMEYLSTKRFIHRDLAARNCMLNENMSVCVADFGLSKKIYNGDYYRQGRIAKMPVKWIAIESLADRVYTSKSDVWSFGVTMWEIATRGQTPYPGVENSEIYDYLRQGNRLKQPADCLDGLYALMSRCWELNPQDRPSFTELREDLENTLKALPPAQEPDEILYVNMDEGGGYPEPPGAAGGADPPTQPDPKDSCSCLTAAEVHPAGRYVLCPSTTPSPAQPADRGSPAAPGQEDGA
Sequence of Serine/threonine-protein kinase TBK1 (Homo sapiens) (Q9UHD2 whole entry): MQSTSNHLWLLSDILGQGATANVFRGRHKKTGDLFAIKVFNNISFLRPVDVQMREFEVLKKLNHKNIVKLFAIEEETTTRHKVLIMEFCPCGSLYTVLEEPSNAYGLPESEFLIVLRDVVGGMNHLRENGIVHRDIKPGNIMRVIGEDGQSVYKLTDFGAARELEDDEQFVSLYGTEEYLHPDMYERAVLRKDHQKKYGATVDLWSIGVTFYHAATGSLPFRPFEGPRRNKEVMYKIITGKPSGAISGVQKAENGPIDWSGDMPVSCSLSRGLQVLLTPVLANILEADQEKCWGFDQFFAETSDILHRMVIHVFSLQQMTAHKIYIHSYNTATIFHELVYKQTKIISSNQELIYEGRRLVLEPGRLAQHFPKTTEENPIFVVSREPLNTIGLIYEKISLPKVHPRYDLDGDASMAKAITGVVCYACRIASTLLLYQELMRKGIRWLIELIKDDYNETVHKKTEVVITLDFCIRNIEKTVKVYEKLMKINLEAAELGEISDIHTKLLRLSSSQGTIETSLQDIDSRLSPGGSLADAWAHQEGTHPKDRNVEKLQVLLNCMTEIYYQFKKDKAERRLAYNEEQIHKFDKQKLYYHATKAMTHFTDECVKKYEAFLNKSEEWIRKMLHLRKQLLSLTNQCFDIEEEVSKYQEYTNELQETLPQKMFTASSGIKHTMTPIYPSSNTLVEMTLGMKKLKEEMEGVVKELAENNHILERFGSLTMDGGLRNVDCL
Sequence of Homeodomain-interacting protein kinase 4 (Homo sapiens) (Q8NE63 whole entry): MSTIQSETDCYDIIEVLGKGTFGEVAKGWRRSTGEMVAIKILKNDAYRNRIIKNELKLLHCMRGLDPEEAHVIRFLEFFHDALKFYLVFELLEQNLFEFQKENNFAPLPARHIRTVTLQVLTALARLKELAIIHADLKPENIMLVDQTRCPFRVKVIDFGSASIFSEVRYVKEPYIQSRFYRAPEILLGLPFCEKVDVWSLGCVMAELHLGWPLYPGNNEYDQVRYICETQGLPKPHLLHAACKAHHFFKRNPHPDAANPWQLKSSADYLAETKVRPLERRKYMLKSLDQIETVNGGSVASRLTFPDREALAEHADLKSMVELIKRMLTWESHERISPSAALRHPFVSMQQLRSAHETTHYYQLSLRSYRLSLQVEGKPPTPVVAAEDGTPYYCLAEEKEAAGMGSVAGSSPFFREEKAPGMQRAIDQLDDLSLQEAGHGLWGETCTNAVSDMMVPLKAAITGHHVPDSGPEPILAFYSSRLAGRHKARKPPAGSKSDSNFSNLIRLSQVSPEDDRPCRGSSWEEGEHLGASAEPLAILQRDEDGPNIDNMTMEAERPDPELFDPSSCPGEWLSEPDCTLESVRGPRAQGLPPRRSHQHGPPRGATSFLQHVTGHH
Sequence of Tyrosine-protein kinase Fer (Homo sapiens) (P16591 whole entry, looked up): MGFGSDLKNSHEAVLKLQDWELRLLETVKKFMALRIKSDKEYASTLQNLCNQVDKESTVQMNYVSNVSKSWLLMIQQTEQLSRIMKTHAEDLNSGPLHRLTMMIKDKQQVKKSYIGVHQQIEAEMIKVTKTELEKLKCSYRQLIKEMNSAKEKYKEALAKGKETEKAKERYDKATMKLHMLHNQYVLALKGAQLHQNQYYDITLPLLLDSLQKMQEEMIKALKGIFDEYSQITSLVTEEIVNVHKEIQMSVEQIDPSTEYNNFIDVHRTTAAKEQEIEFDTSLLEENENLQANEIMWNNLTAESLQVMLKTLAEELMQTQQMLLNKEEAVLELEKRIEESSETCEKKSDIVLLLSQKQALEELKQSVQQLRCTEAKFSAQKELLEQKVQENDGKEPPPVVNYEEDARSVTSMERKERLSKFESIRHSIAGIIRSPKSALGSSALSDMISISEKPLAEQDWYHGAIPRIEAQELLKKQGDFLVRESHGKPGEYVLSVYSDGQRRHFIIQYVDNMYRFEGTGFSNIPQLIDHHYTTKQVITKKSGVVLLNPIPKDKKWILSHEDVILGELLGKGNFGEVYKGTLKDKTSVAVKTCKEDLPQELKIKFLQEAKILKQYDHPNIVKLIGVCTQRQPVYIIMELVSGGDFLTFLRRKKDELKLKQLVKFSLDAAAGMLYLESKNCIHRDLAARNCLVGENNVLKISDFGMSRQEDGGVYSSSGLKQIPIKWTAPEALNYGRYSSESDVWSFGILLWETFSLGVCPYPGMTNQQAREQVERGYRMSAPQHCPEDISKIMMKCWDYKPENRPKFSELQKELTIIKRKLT
Sequence of Mitogen-activated protein kinase kinase kinase 10 (Homo sapiens) (Q02779 whole entry, looked up, canonical isoform): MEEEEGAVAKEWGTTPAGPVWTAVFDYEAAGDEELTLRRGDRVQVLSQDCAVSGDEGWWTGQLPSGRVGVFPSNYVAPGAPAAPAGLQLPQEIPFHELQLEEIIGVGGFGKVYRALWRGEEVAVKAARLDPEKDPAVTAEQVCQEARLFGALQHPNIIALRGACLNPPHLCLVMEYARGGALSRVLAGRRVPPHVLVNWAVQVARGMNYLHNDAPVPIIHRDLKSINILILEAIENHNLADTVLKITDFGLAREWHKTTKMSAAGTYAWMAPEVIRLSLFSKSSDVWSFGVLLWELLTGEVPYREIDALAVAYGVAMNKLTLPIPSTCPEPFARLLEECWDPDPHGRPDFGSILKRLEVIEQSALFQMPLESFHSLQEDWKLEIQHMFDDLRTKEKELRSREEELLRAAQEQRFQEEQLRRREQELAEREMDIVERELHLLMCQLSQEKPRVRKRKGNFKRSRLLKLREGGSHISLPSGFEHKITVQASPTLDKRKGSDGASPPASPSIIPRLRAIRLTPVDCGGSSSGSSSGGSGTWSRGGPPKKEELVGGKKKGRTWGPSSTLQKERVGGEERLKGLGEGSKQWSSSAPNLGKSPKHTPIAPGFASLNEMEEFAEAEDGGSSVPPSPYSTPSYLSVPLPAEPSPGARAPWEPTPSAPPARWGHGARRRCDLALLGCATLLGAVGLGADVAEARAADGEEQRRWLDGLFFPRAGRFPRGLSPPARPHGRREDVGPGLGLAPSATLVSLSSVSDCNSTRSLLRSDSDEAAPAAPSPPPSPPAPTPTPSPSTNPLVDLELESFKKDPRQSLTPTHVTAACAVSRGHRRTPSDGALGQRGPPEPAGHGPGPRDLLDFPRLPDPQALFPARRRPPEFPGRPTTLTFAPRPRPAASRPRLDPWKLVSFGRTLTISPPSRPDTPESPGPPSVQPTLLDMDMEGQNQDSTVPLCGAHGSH
Sequence of Serine/threonine-protein kinase DCLK1 (Homo sapiens) (O15075 whole entry): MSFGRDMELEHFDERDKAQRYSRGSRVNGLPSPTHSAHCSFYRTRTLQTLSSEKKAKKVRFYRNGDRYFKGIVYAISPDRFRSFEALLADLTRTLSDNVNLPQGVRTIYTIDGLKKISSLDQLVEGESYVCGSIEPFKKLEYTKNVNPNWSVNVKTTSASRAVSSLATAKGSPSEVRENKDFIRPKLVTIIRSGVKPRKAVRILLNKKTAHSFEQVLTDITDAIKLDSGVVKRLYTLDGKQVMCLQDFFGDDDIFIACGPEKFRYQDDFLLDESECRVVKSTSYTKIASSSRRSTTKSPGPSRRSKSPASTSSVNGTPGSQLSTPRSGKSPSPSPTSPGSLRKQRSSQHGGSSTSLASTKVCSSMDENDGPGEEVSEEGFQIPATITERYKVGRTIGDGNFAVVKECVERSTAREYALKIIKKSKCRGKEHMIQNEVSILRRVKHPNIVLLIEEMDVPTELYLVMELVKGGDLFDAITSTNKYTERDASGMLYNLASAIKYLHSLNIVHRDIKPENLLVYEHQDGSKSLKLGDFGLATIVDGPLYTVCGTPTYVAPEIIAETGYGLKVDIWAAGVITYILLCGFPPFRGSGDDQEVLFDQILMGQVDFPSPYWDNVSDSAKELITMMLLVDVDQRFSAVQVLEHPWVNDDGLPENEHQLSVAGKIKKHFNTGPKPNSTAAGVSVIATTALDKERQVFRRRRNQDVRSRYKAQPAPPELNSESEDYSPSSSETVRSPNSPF
Sequence of Cyclin-dependent kinase 3 (Homo sapiens) (Q00526 whole entry, looked up): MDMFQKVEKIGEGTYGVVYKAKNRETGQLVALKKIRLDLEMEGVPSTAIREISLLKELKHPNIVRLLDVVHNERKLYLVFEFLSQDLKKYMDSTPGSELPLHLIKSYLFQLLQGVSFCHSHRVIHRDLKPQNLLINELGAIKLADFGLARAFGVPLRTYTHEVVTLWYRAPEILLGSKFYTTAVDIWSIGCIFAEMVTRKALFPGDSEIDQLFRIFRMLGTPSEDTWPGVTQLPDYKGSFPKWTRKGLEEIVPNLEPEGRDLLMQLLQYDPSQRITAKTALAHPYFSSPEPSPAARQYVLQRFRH

Structure (SMILES): C[C@H](NC(=O)Nc1cc2[nH]ncc2c(CO)n1)c1ccccn1 [ERKi-NC]
- residual activity [1, 46]: 100%
- residual activity [2, 46]: 81%
- residual activity [3, 46]: 48.3%
- residual activity [4, 46]: 100%
- residual activity [5, 46]: 100%
- residual activity [6, 46]: 67.9%
- residual activity [7, 46]: 94%
- residual activity [8, 46]: 100%
- residual activity [9, 46]: 100%
- residual activity [10, 46]: 100%
- residual activity [11, 46]: 98.4%
- residual activity [12, 46]: 57.7%
- residual activity [13, 46]: 100%
- residual activity [14, 46]: 53.1%
- residual activity [15, 46]: 100%
- residual activity [16, 46]: 100%
- residual activity [17, 46]: 100%
- residual activity [18, 46]: 100%
- residual activity [19, 46]: 100%
- residual activity [20, 46]: 78%
- residual activity [21, 46]: 100%
- residual activity [22, 46]: 71.1%
- residual activity [23, 46]: 100%
- residual activity [24, 46]: 90.7%
- residual activity [25, 46]: 100%
- residual activity [26, 46]: 100%
- residual activity [27, 46]: 67.6%
- residual activity [28, 46]: 100%
- residual activity [29, 46]: 100%
- residual activity [30, 46]: 100%
- residual activity [31, 46]: 74.6%
- residual activity [32, 46]: 82.2%
- residual activity [33, 46]: 100%
- residual activity [34, 46]: 100%
- residual activity [35, 46]: 100%
- residual activity [36, 46]: 100%
- residual activity [37, 46]: 100%
- residual activity [38, 46]: 74.9%
- inhibition [39]: 20%
- residual activity [40, 46]: 100%
- residual activity [41, 46]: 17.6%
- residual activity [42, 46]: 100%
- residual activity [43, 46]: 88.8%
- residual activity [44, 46]: 100%
- residual activity [45, 46]: 86.3%

Structure (SMILES): C[C@@H](NC(=O)Nc1cc2[nH]ncc2c(CO)n1)c1ccccc1 [ERKi]
- residual activity [1, 47]: 61.5%
- residual activity [2, 47]: 77.7%
- residual activity [3, 47]: 84.8%
- residual activity [4, 47]: 37.1%
- residual activity [5, 47]: 81%
- residual activity [6, 47]: 97.4%
- residual activity [7, 47]: 85.7%
- residual activity [8, 47]: 79.1%
- residual activity [9, 47]: 96.6%
- residual activity [10, 47]: 89.6%
- residual activity [11, 47]: 87.3%
- residual activity [12, 47]: 83.4%
- residual activity [13, 47]: 85.7%
- residual activity [14, 47]: 100%
- residual activity [15, 47]: 90.5%
- residual activity [16, 47]: 90.8%
- residual activity [17, 47]: 77.9%
- residual activity [18, 47]: 100%
- residual activity [19, 47]: 89.7%
- residual activity [20, 47]: 94.1%
- residual activity [21, 47]: 95.7%
- residual activity [22, 47]: 90.3%
- residual activity [23, 47]: 80.5%
- residual activity [24, 47]: 52.4%
- residual activity [25, 47]: 100%
- residual activity [26, 47]: 96.4%
- residual activity [27, 47]: 82.5%
- residual activity [28, 47]: 79.6%
- residual activity [29, 47]: 83.5%
- residual activity [30, 47]: 96%
- residual activity [31, 47]: 68.1%
- residual activity [32, 47]: 90.2%
- residual activity [33, 47]: 72.3%
- residual activity [34, 47]: 86.1%
- residual activity [35, 47]: 83.3%
- residual activity [36, 47]: 100%
- residual activity [37, 47]: 94.1%
- residual activity [38, 47]: 80.5%
- inhibition [39]: -1.87%
- residual activity [40, 47]: 82.6%
- residual activity [41, 47]: 89.1%
- residual activity [42, 47]: 77.5%
- residual activity [43, 47]: 100%
- residual activity [44, 47]: 100%
- residual activity [45, 47]: 100%
